Entries after “also recorded” stand apart in the source; their conditions may differ. Bridge positions count the residues as written; N and C are the ends. Square brackets hold non-standard residues; d marks the D form. Peptide text beside a SMILES is read from it. * marks the point of attachment. Ileψ(thiazoline)Cys = CC[C@H](C)[C@H](N)C1=N[C@H](C(=O)*)CS1; dOrn = NCCC[C@@H](N)C(=O)O
Assays:
S. aureus [1] = experiment: Superficial skin abrasion / superficial wound skin infection model; assay type: in vivo; details: for synergy with nisin in the skin infection model: used in combination with nisin; for synergy with mupirocin in the skin infection model: used in combination with mupirocin
Protocol: Mice provided a superficial skin abrasion and inoculated with S. aureus as described in Example 2 were treated with a composition comprising a combination of 6% nisin and 0.1% gentamicin.
In order to determine if nisin could function in a synergistic way with other antimicrobials to treat (e.g., kill and/or inhibit growth of) bacteria in a superficial wound model (See Example 2), nisin was used in combination with either neomycin or gallidermin and tested.
In order to determine if nisin or gallidermin could function in a synergistic way with other antimicrobials to treat (e.g., kill and/or inhibit growth of) bacteria in a superficial wound model (See Example 2), nisin or gallidermin were used in combination with either gentamicin and mupirocin, respectively, and tested. Nisin did synergize with gentamicin and gallidermin did synergize with mupirocin to reduce bacterial counts in the skin infection model.
In order to determine if mupirocin could function in a synergistic way with bacitracin to treat (e.g., kill and/or inhibit growth of) bacteria in a superficial wound model (See Example 2), mupirocin was used in combination with bacitracin and tested for the ability to treat bacteria.

S. aureus [2] = experiment: In vitro MIC of nisin alone or in combination (log reduction of viable S. aureus); assay type: cell-based; details: FIG. 11
Protocol: In order to determine if nisin could function in a synergistic way with other antimicrobials to treat (e.g., kill and/or inhibit growth of) bacteria in vitro, the minimum inhibitory concentration (MIC) of nisin alone or nisin in combination with either mupirocin, neomycin or gentamicin were tested. The MIC was determined by calculating the log reduction of viable S. aureus following incubation with the amounts of nisin and other antimicrobials as indicated in FIG. 11.

S. aureus [3] = experiment: Mouse skin infection model: S. aureus infection in abraded mouse skin; assay type: in vivo; details: for efficacy compared with independent administration of nisin: PEG ointment or G&W petrolatum base bacitracin formulation, FIG. 2; for additive or synergistic effect when combined with nisin: skin infection, combined with nisin (See Example 1)
Protocol: (§1) Mouse Skin Infection Model: An overnight culture of S. aureus grown in tryptic soy broth (SA8; range from 1 to 6×10^9 CFUs/mL) was centrifuged at 4000×g for 10 minutes and resuspended in an equal volume of phosphate buffered saline (PBS). The bacteria were diluted to a percent transmittance of 40 (Spectronic 20D+) and diluted a subsequent 1:1000 in PBS for a final bacteria concentration of about 3×10^5. SKH1 (hrhr) hairless mice (Charles River) were sedated with 0.2 mL of ketamine (80 mg/kg) and xylazine (32 mg/kg) delivered intraperitoneally. The upper back of the mice were scrubbed with a 70% alcohol wipe and allowed to dry. Fine abrasions were made on the backs' of the mice between the shoulders using 150 grit sandpaper. Bacteria were swabbed over the abraded area with a sterile, cotton-tipped applicator until the area was saturated with the solution.
Topical Ointment: 74 g of PEG 400 and 24 g of PEG 3350 were added to a 250 mL glass beaker and heated until all of the PEG 3350 was melted. The solution was stirred well and allowed to cool to room temperature, which results in a smooth, opaque ointment. Powdered nisin and bacitracin were added to the ointment on a w/w basis and stirred until homogenously mixed. For formulations containing mupirocin, 1 g of Bactroban Ointment was weighed into a container and powdered nisin added to 2% or 6% (w/w) and mixed well. Lysostaphin was first dissolve to a concentration of about 150 mg/mL in DI water before mixing into the ointment to give a final concentration of 2% (w/w).
Treatment of Infected Skin with Topical Ointment: Treatments aimed to eradicate S. aureus skin infections in the mouse model were started on the morning after infection (Day 1). About 0.1 g of the topical ointments containing nisin (0, 2, or 6% w/w), mupirocin (0 or 2%), bacitracin (0 or 500U), and lysostaphin (0 or 2% w/w) were swabbed over the infected area 3 times a day on Days 1 and 2 using a sterile, polyester-tipped applicator. The mice were sacrificed by CO2 asphyxiation on the morning of Day 3 and a 0.5-cm^2 patch of skin around the infected area was excise. The skin sample was dissected and placed into a test tube containing 1 mL of 5 mg/mL proteinase K, 20 mg/mL esterase, and 20 mg/mL activated charcoal in PBS to neutralize the activity of the antibacterial agents. Bacteria were dislodged from the skin sample by sonication: 2 minute treatments per sample with alternating 5 seconds at 3 W and 5 seconds at 0 W in a Virsonic 600 with microtip (VirTis). After mixing by vortex, 50 μL of each sample was streaked onto blood agar plates, incubated at 37° C. overnight, and the colonies were counted and compared to untreated controls.
For the following data, except where noted in FIG. 2, all antibiotic formulations were in a common polyethylene glycol (PEG) ointment (PEG 400 plus PEG 3350).

[4] = tested on: Staphylococcus aureus ATCC #6538; experiment: Inoculated partial thickness wounds in pig; assay type: in vivo; details: treated twice per day, mean ± SD
Protocol: Experimental animals. A young female specific pathogen free (SPF: Looper Farms, North Carolina) pig weighing 25-30 kg was kept in house for two weeks prior to initiating the experiment. The animal was fed a basal diet ad libitum and housed individually in animal facilities (meeting American Association for Accreditation of Laboratory Animal) with controlled temperature (19-21° C.) and lights (12 h/12 h LD). The experimental animal protocols used for this study followed the federal guidelines for the care and use of laboratory animals (U.S. Department of Health and Human Services, U.S. Department of Agriculture). Animals were monitored daily for any observable signs of pain or discomfort. […] A small amount of the inoculum suspension was plated onto culture media to quantitate the exact concentration of viable organisms prior to the experiment. […] At each sampling time, sites were cultured quantitatively. […] Serial dilutions were made and scrub solutions were quantitated using the Spiral Plater System that deposits a small defined amount (50 μl) of suspension over the surface of a rotating agar plate. […]

P. aeruginosa [5] = details: previously shown; cited from earlier work
P. aeruginosa [6] = experiment: P. aeruginosa infection in abraded mouse skin; assay type: in vivo; details: FIG. 4
S. aureus [7] = experiment: Suture skin infection (deep tissue infection) mouse model; assay type: in vivo; details: deep cut in mouse, S. aureus introduced into the incision; FIG. 13
Protocol: It was determined whether nisin and mupirocin, either alone or in combination with each other, would be able to treat S. aureus in a deep tissue infection model. A suture skin infection model was generated in which a deep cut (e.g., one needing sutures to close) was made in a mouse and S. aureus introduced into the incision. […] Thus, a combination of nisin and mupirocin can be used to treat a deep tissue infection as well as a […] infection.

[8] = tested on: S. aureus strain resistant to mupirocin; experiment: Mupirocin-resistant S. aureus infection in abraded mouse skin; assay type: in vivo; details: FIG. 3
Protocol: as §1
Topical Ointment: 74 g of PEG 400 and 24 g of PEG 3350 were added to a 250 mL glass beaker and heated until all of the PEG 3350 was melted. […]
Treatment of Infected Skin with Topical Ointment: Treatments aimed to eradicate S. aureus skin infections in the mouse model were started on the morning after infection (Day 1). […] After mixing by vortex, 50 μL of each sample was streaked onto blood agar plates, incubated at 37° C. overnight, and the colonies were counted and compared to untreated controls. […]

Compound | synergy with nisin in the skin infection model (S. aureus [1]) | ability to synergize in vitro with nisin (S. aureus [2]) | efficacy compared with independent administration of nisin (S. aureus [3]) | additive or synergistic effect when combined with nisin (S. aureus [3]) | synergy with mupirocin in the skin infection model (S. aureus [1]) | also measured
gentamicin | did synergize | none of the antimicrobials tested (i.e., mupirocin, neomycin, and gentamicin) displayed the ability to synergize in vitro with nisin | – | – | – | –
CC[C@H](C)[C@H](N)C1=N[C@H](C(=O)N[C@@H](CC(C)C)C(=O)N[C@H](CCC(=O)O)C(=O)N[C@H](C(=O)N[C@H]2CCCCNC(=O)[C@H](CC(N)=O)NC(=O)[C@@H](CC(=O)O)NC(=O)[C@H](Cc3cnc[nH]3)NC(=O)[C@@H](Cc3ccccc3)NC(=O)[C@H]([C@@H](C)CC)NC(=O)[C@@H](CCCN)NC2=O)[C@@H](C)CC)CS1 [bacitracin] ({Ileψ(thiazoline)Cys}-L[dE]IK[dOrn]I[dF]H[dD]N; lactam 4-C) | – | – | None of these antibacterial agents administered independently, or administered in a composition comprising nisin, were significantly more efficacious than the independent administration of nisin | no additive or synergistic effect was observed | did not synergize with bacitracin, nor was there an additive benefit; also recorded: does not synergize with or provide additive benefit together with bacitracin | –
gallidermin | did not synergize | – | – | – | did synergize | –
C/C(=C\C(=O)OCCCCCCCCC(=O)O)C[C@@H]1OC[C@H](C[C@@H]2O[C@H]2[C@@H](C)[C@H](C)O)[C@@H](O)[C@H]1O [Mupirocin, mupirocin] | – | none of the antimicrobials tested (i.e., mupirocin, neomycin, and gentamicin) displayed the ability to synergize in vitro with nisin | – | – | – | Av. Count (S. aureus recovered from wounds) ([4]; Day 7 post treatment): 1.63 ± 1.42 Log cfu/ml; Av. Count (S. aureus recovered from wounds) ([4]; two days after initial treatment): 4.96 ± 0.8 Log CFU/ml; decrease in infectious CFUs (S. aureus [3]; abraded mouse skin, drug alone in PEG ointment, 3 times a day on Days 1 and 2, skin sampled Day 3, vs untreated controls, FIG. 1): 3 logs; animals cleared of infection (S. aureus [3]; abraded mouse skin, topical ointment 3 times a day on Days 1 and 2, FIG. 1): Neither drug alone was able to completely clear the infection; activity against P. aeruginosa (P. aeruginosa [5]): poor activity; additional activity added to the nisin formulation (P. aeruginosa [6]): does not add any additional activity; efficacy in treating S. aureus in suture infection model (S. aureus [7]): very little efficacy; activity against mupirocin-resistant S. aureus strain [8]: minimal activity
lysostaphin | – | – | None of these antibacterial agents administered independently, or administered in a composition comprising nisin, were significantly more efficacious than the independent administration of nisin | no additive or synergistic effect was observed | – | –
neomycin | did not synergize | none of the antimicrobials tested (i.e., mupirocin, neomycin, and gentamicin) displayed the ability to synergize in vitro with nisin | – | – | – | –
